The results in this text go back to US4497818A, “2-(1,4-Benzodioxan-2-ylalkyl)imidazoles useful as antihypertensives and platelet aggregation inhibitors” (Syntex (U.S.A.) Inc., priority 1981, dated 1985).

Like-named read-outs stand apart in the source and are kept apart here.

In data set [1] the target is T1, post-synaptic α-adrenoceptor (α1) (Rattus norvegicus, UniProt P43140).
T1 construct: from tissue; host or cells: rat isolated vas deferens, epididymal portion
T1 sequence (P43140 1-466): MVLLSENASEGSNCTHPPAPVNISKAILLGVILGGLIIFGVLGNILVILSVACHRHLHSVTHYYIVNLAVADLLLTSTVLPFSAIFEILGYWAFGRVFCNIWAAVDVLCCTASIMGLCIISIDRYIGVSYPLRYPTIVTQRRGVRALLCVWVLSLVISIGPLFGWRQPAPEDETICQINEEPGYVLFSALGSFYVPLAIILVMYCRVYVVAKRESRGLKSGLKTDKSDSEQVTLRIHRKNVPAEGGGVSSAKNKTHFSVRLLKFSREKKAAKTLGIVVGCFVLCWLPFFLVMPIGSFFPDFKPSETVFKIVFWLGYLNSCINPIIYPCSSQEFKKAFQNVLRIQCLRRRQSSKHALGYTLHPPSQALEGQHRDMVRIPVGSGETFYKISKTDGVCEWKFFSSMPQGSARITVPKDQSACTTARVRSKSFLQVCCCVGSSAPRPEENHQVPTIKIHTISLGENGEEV
The data set can be described thus: Post-synaptic α-adrenoceptor blockade (epididymal portion of rat vas deferens, contractile effects of phenylephrine). It counts as cell-based. Particulars: phenylephrine agonist, number of determinations in parentheses; for Kb: for 1-ethyl b174 = lot No. 1, b175 = lot No. 2, read-out: pA2 (α1) (converted). From the text: The contralateral portions served as control tissues.
J. Pharmacol.; 14: 48-58 (1959).

A short description of data set [2]: LD50, intraperitoneal injection in mice. The settings on record: mouse, in vivo, ip, per body weight.
Data set [3] relates to blood platelets. The data set can be described thus: Platelet aggregation inhibition. Particulars: hydrochloride salt; for inhibition at 500 µM: at 5 × 10^-4 M, read-out: inhibition From Maximum Height (ΔT). It counts as cell-based. The procedure:
Blood platelets are collected in the standard manner, and incubated in an Aggregation Module Incubator-Cuvette in the presence of either the inhibitor to be tested, or without said inhibitor as a control. The aggregation of the platelets is observed after the addition of an inducer, and the samples are evaluated for the presence of a lag period and the slope of the aggregation curve, as well as the maximum height of the aggregation curve in comparison to the control.

Data set [4] has as its system spontaneously hypertensive rats. The data set can be described thus: Antihypertensive activity in spontaneously hypertensive rats. The data set is classed as in vivo, rat. Particulars: 50 mg per kg orally on two consecutive mornings; hydrochloride salt; measured during four hours after second dose. The procedure:
Spontaneously hypertensive rats were divided into groups of four animals each with approximately equal mean systolic blood pressures. One such group serves as a control against another group which is given the compound to be tested. On two consecutive mornings, the test group was dosed orally with 50 mg per kg of 1-ethyl-2-(1,4-benzodioxane-2-ylmethyl)imidazole as a hydrochloride salt which was suspended in a vehicle of water and tween. The control group received vehicle only. Immediately after dosing on the second day, the rats were put in restrainers and placed in a heated chamber at 30° C. for four hours.
During this time, systolic blood pressures were determined at four consecutive 20 second intervals using photoelectric transducers. The mean systolic blood pressure of each rat (as an average of these four measurements) was recorded. The results are given as percentage lowering of the mean systolic blood pressure in the experimental as compared with the control group.

With `Cn1ccnc1CC1COc2ccccc2O1` (stereo not drawn) [1-methyl-2-(1,4-benzodioxan-2-ylmethyl)imidazole], the Kb in data set [1] is 50.1 µM.
On to `CCCn1ccnc1CC1COc2ccccc2O1` (stereo not drawn) [1-propyl-2-(1,4-benzodioxan-2-ylmethyl)imidazole], for which the Kb in data set [1] was 63.1 µM. In data set [2], this compound returned an LD50 of 200 mg/kg.
In the case of `CCn1ccnc1CC1COc2ccccc2O1` (stereo not drawn) [1-ethyl-2-(1,4-benzodioxan-2-ylmethyl)imidazole], the “pA2 (α1)” value in data set [1] (for 1-ethyl b174 = lot No. 1, b175 = lot No. 2) is 4.00. Besides, in data set [1], the Kb was 100 µM. In data set [2], this compound came in with an LD50 of 200 mg/kg.
In the case of `c1ccc2c(c1)OCC(Cc1ncc[nH]1)O2` (stereo not drawn) [2-(1,4-benzodioxan-2-ylmethyl)imidazole], the Kb in data set [1] was 0.794 µM. This compound also yielded an LD50 in data set [2] of 70 mg/kg.
Consider `CCn1ccnc1CC1COc2ccccc2O1` (stereo not drawn) [1-ethyl-2-(1,4-benzodioxane-2-ylmethyl)imidazole], for which the inhibition at 1000 µM in data set [3] (inducer ADP (5 × 10^-6 M), at 10^-3 M, read-out: inhibition From Slope (Rate)) is 20%. The concentration for half-maximal inhibition (IC50) was determined as 1000 µM in data set [3] (inducer ADP (5 × 10^-6 M), read-out: IC50 From Maximum Height (ΔT)); 190 µM in data set [3] (inducer arachidonic acid (2.5 × 10^-4 M), read-out: IC50 From Maximum Height (ΔT)); 310 µM in data set [3] (inducer arachidonic acid (2.5 × 10^-4 M), read-out: IC50 From Slope (Rate)); 450 µM in data set [3] (inducer collagen (30&), read-out: IC50 From Slope (Rate)). The inhibition at 500 µM in data set [3] (inducer collagen (30&)) was determined as 27%; in data set [3] (inducer epinephrine (5 × 10^-6 M)) it was 5%. Besides, in data set [3] (inducer epinephrine (5 × 10^-6 M), 5 × 10^-5 M, read-out: inhibition From Slope (Rate)), the inhibition at 50 µM was 99%. The “lowering of the mean systolic blood pressure compared with control group” value in data set [4] is recorded as 29%.
In the case of `c1ccc2c(c1)OCC(CCc1ncc[nH]1)O2` (stereo not drawn) [2-(2-(1,4-benzodioxan-2-yl)ethyl)imidazole], the Kb in data set [1] is 0.617 µM.

As a reminder, the LD50 is the dose at which mortality reaches 50%. Usually inhibition stands for the change of the read-out against control, counted positive when it falls. The IC50 is the concentration that gives 50% inhibition.
